# Experimental data taken from PubChem BioAssay (NCI).
#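 These data come from cells grown in 96-well plates and exposed to compound for 48 hours at five concentrations. GI50: concentration for 50% inhibition of growth. Definition used: TGI = concentration required for complete inhibition of growth.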
# Legend:
# Assay in all cases: NCI tumour cell line growth inhibition, 48 h
# MALME-3M melanoma = tested on: MALME-3M melanoma
# NCI/ADR-RES ovarian = tested on: NCI/ADR-RES ovarian
# HOP-62 NSCLC = tested on: HOP-62 NSCLC
# A549 NSCLC = tested on: A549 NSCLC
# A498 renal = tested on: A498 renal
# U251 CNS = tested on: U251 CNS
# HT29 colon = tested on: HT29 colon
# SF-539 CNS = tested on: SF-539 CNS
# SK-MEL-2 melanoma = tested on: SK-MEL-2 melanoma
# OVCAR-3 ovarian = tested on: OVCAR-3 ovarian
# PC-3 prostate = tested on: PC-3 prostate
# RPMI-8226 leukemia = tested on: RPMI-8226 leukemia
# MDA-MB-231 breast = tested on: MDA-MB-231 breast
# T-47D breast = tested on: T-47D breast
# BT-549 breast = tested on: BT-549 breast
# ACHN renal = tested on: ACHN renal
# SK-MEL-5 melanoma = tested on: SK-MEL-5 melanoma
# SN12C renal = tested on: SN12C renal
# SR leukemia = tested on: SR leukemia
# UACC-257 melanoma = tested on: UACC-257 melanoma
# OVCAR-8 ovarian = tested on: OVCAR-8 ovarian
# HS 578T breast = tested on: HS 578T breast
# SK-OV-3 ovarian = tested on: SK-OV-3 ovarian
# K-562 leukemia = tested on: K-562 leukemia
# LOX IMVI melanoma = tested on: LOX IMVI melanoma
# M14 melanoma = tested on: M14 melanoma
# KM12 colon = tested on: KM12 colon
# SF-295 CNS = tested on: SF-295 CNS
# UO-31 renal = tested on: UO-31 renal
# COLO 205 colon = tested on: COLO 205 colon
# MCF7 breast = tested on: MCF7 breast
# 786-0 renal = tested on: 786-0 renal
# OVCAR-4 ovarian = tested on: OVCAR-4 ovarian
# NCI-H522 lung = tested on: NCI-H522 lung
# HOP-92 NSCLC = tested on: HOP-92 NSCLC
# OVCAR-5 ovarian = tested on: OVCAR-5 ovarian
# TK-10 renal = tested on: TK-10 renal
# RXF 393 renal = tested on: RXF 393 renal
# SNB-19 CNS = tested on: SNB-19 CNS
# SW-620 colon = tested on: SW-620 colon
# MOLT-4 leukemia = tested on: MOLT-4 leukemia
# SNB-75 CNS = tested on: SNB-75 CNS
# SF-268 CNS = tested on: SF-268 CNS
# UACC-62 melanoma = tested on: UACC-62 melanoma
# SK-MEL-28 melanoma = tested on: SK-MEL-28 melanoma
# MDA-MB-435 = tested on: MDA-MB-435
# NCI-H460 lung = tested on: NCI-H460 lung
# NCI-H23 lung = tested on: NCI-H23 lung
# IGROV1 ovarian = tested on: IGROV1 ovarian
# HCT-15 colon = tested on: HCT-15 colon
# HCC-2998 colon = tested on: HCC-2998 colon
# CAKI-1 renal = tested on: CAKI-1 renal
# HCT-116 colon = tested on: HCT-116 colon
# NCI-H226 lung = tested on: NCI-H226 lung
# CCRF-CEM leukemia = tested on: CCRF-CEM leukemia
# DU-145 prostate = tested on: DU-145 prostate
smiles,measurement,setting,value
C[C@@H]1CC[C@H]2C(CN(C)CC3=C(C(F)(F)F)O[C@@H]4O[C@@]5(C)CC[C@H]6[C@H](C)CC[C@@H]3[C@@]46OO5)=C(C(F)(F)F)O[C@@H]3O[C@@]4(C)CC[C@@H]1[C@]32OO4,GI50,MALME-3M melanoma,1.06 µM
same,TGI,MALME-3M melanoma,> 83.9 µM
same,GI50,NCI/ADR-RES ovarian,16.8 µM
same,TGI,NCI/ADR-RES ovarian,> 59.2 µM
same,GI50,HOP-62 NSCLC,34.4 µM
same,TGI,HOP-62 NSCLC,> 100 µM
same,GI50,A549 NSCLC,1.58 µM
same,TGI,A549 NSCLC,> 45.4 µM
same,GI50,A498 renal,3.92 µM
same,TGI,A498 renal,> 100 µM
same,GI50,U251 CNS,0.405 µM
same,TGI,U251 CNS,22.6 µM
same,GI50,HT29 colon,2.76 µM
same,TGI,HT29 colon,> 100 µM
same,GI50,SF-539 CNS,0.488 µM
same,TGI,SF-539 CNS,> 100 µM
same,GI50,SK-MEL-2 melanoma,> 37.1 µM
same,TGI,SK-MEL-2 melanoma,> 80.7 µM
same,GI50,OVCAR-3 ovarian,0.419 µM
same,TGI,OVCAR-3 ovarian,12.1 µM
same,GI50,PC-3 prostate,0.231 µM
same,TGI,PC-3 prostate,> 100 µM
same,GI50,RPMI-8226 leukemia,0.82 µM
same,TGI,RPMI-8226 leukemia,> 49.6 µM
same,GI50,MDA-MB-231 breast,5.9 µM
same,TGI,MDA-MB-231 breast,> 93.1 µM
same,GI50,T-47D breast,0.236 µM
same,TGI,T-47D breast,39.7 µM
same,GI50,BT-549 breast,14.3 µM
same,TGI,BT-549 breast,54.4 µM
same,GI50,ACHN renal,1.81 µM
same,TGI,ACHN renal,14.9 µM
same,GI50,SK-MEL-5 melanoma,1.86 µM
same,TGI,SK-MEL-5 melanoma,18.9 µM
same,GI50,SN12C renal,7.47 µM
same,TGI,SN12C renal,> 100 µM
same,GI50,SR leukemia,81.9 µM
same,TGI,SR leukemia,> 100 µM
same,GI50,UACC-257 melanoma,1.9 µM
same,TGI,UACC-257 melanoma,> 51.1 µM
same,GI50,OVCAR-8 ovarian,1.58 µM
same,TGI,OVCAR-8 ovarian,> 53.6 µM
same,GI50,HS 578T breast,2.25 µM
same,GI50,SK-OV-3 ovarian,> 100 µM
same,TGI,SK-OV-3 ovarian,> 100 µM
same,TGI,K-562 leukemia,> 42.6 µM
same,GI50,LOX IMVI melanoma,0.715 µM
same,TGI,LOX IMVI melanoma,1.98 µM
same,GI50,M14 melanoma,2.69 µM
same,TGI,M14 melanoma,> 100 µM
same,GI50,KM12 colon,0.381 µM
same,TGI,KM12 colon,20.1 µM
same,TGI,SF-295 CNS,> 51.5 µM
same,GI50,UO-31 renal,2.86 µM
same,GI50,COLO 205 colon,0.728 µM
same,TGI,COLO 205 colon,> 100 µM
same,GI50,MCF7 breast,1.56 µM
same,TGI,MCF7 breast,> 100 µM
same,GI50,786-0 renal,4.03 µM
same,TGI,786-0 renal,41.7 µM
same,GI50,OVCAR-4 ovarian,1.12 µM
same,TGI,OVCAR-4 ovarian,56.6 µM
same,GI50,NCI-H522 lung,2.67 µM
same,GI50,HOP-92 NSCLC,11.4 µM
same,TGI,HOP-92 NSCLC,> 94.4 µM
same,GI50,OVCAR-5 ovarian,0.935 µM
same,TGI,OVCAR-5 ovarian,> 100 µM
same,GI50,TK-10 renal,4.93 µM
same,TGI,TK-10 renal,> 54.2 µM
same,GI50,RXF 393 renal,2.83 µM
same,TGI,RXF 393 renal,> 100 µM
same,GI50,SNB-19 CNS,23.6 µM
same,TGI,SNB-19 CNS,> 100 µM
same,GI50,SW-620 colon,0.65 µM
same,TGI,SW-620 colon,53.3 µM
same,GI50,MOLT-4 leukemia,> 25.4 µM
same,TGI,MOLT-4 leukemia,> 100 µM
same,TGI,SNB-75 CNS,> 23.9 µM
same,GI50,SF-268 CNS,2.82 µM
same,TGI,SF-268 CNS,> 95.7 µM
same,GI50,UACC-62 melanoma,12.4 µM
same,TGI,UACC-62 melanoma,> 100 µM
same,GI50,SK-MEL-28 melanoma,> 32.8 µM
same,TGI,SK-MEL-28 melanoma,> 100 µM
same,GI50,MDA-MB-435,0.549 µM
same,TGI,MDA-MB-435,40.2 µM
same,GI50,NCI-H460 lung,1.32 µM
same,TGI,NCI-H460 lung,> 56.9 µM
same,GI50,NCI-H23 lung,0.818 µM
same,TGI,NCI-H23 lung,27 µM
same,GI50,IGROV1 ovarian,2.3 µM
same,TGI,IGROV1 ovarian,> 23.9 µM
same,GI50,HCT-15 colon,0.506 µM
same,TGI,HCT-15 colon,> 100 µM
same,GI50,HCC-2998 colon,18.9 µM
same,TGI,HCC-2998 colon,> 59.5 µM
same,GI50,CAKI-1 renal,3.19 µM
same,TGI,CAKI-1 renal,18.2 µM
same,GI50,HCT-116 colon,0.415 µM
same,TGI,HCT-116 colon,32.9 µM
same,GI50,NCI-H226 lung,3.71 µM
same,TGI,NCI-H226 lung,> 64.9 µM
same,GI50,CCRF-CEM leukemia,1.31 µM
same,TGI,CCRF-CEM leukemia,> 42.9 µM
same,GI50,DU-145 prostate,2.69 µM
same,TGI,DU-145 prostate,16.8 µM
